According to PubChem BioAssay AID2060508 (Molecular Pharmacology Branch, DTP, NCI, 2025):

Test system: 454973-116-R2-J3-PDC spheroids, viability, % test/control
Experiment: Anticancer human tumor 454973-116-R2-J3-PDC patient-derived pancreatic carcinoma cell line growth inhibition [GQUAD]
Conditions: spheroids with HUVEC and MSC; for IC50: curve of first compound; for viability, T/C: stronger effect = lower value
Outline: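 Multi-cell-type spheroids of tumor cells with HUVEC and mesenchymal stem cells, treated with drug combinations. Concentrations descend in half-log steps from near clinical Cmax, or from 10 microM where Cmax is unknown; viability read-out.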

[1] = second compound 0.0316 µM, first compound 0.0316 µM
[2] = second compound 0.0316 µM, first compound 0.1 µM
[3] = second compound 0.0316 µM, first compound 0.316 µM
[4] = second compound 0.0316 µM, first compound 1 µM
[5] = second compound 0.0316 µM, first compound 3.16 µM
[6] = second compound 0.0316 µM, first compound 10 µM
[7] = second compound 0.1 µM, first compound 0.0316 µM
[8] = second compound 0.1 µM, first compound 0.1 µM
[9] = second compound 0.1 µM, first compound 0.316 µM
[10] = second compound 0.1 µM, first compound 1 µM
[11] = second compound 0.1 µM, first compound 3.16 µM
[12] = second compound 0.1 µM, first compound 10 µM
[13] = second compound 0.316 µM, first compound 0.0316 µM
[14] = second compound 0.316 µM, first compound 0.1 µM
[15] = second compound 0.316 µM, first compound 0.316 µM
[16] = second compound 0.316 µM, first compound 1 µM
[17] = second compound 0.316 µM, first compound 3.16 µM
[18] = second compound 0.316 µM, first compound 10 µM
[19] = second compound 1 µM, first compound 0.0316 µM
[20] = second compound 1 µM, first compound 0.1 µM
[21] = second compound 1 µM, first compound 0.316 µM
[22] = second compound 1 µM, first compound 1 µM
[23] = second compound 1 µM, first compound 3.16 µM
[24] = second compound 1 µM, first compound 10 µM
[25] = second compound 3.16 µM, first compound 0.0316 µM
[26] = second compound 3.16 µM, first compound 0.1 µM
[27] = second compound 3.16 µM, first compound 0.316 µM
[28] = second compound 3.16 µM, first compound 1 µM
[29] = second compound 3.16 µM, first compound 3.16 µM
[30] = second compound 3.16 µM, first compound 10 µM
[31] = second compound 10 µM, first compound 0.0316 µM
[32] = second compound 10 µM, first compound 0.1 µM
[33] = second compound 10 µM, first compound 0.316 µM
[34] = second compound 10 µM, first compound 1 µM
[35] = second compound 10 µM, first compound 3.16 µM
[36] = second compound 10 µM, first compound 10 µM
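Also: spheroids exposed to compounds for seven days.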
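For viability, T/C in this document: 100% = DMSO vehicle control viability.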

In the case of COc1cccc2c1C(=O)c1c(O)c3c(c(O)c1C2=O)CC(O)(C(=O)CO)CC3OC1CC(N)C(O)C(C)O1 (centres undefined) + CN(C)c1ccc(Nc2c3ccc(NC(=O)CCN4CCCC4)cc3nc3cc(NC(=O)CCN4CCCC4)ccc23)cc1, the IC50 (second compound 0.0316 µM) is reported as 236 nM, the IC50 (second compound 0.1 µM) is reported as 242 nM and the IC50 (second compound 0.316 µM) is reported as 255 nM. It also gave an IC50 (second compound 1 µM) of 253 nM, an IC50 (second compound 3.16 µM) of 405 nM and an IC50 (second compound 10 µM) of 410 nM. It also gave a viability, T/C [1] of 104%, a viability, T/C [2] of 72.1% and a viability, T/C [3] of 33%. For the same compound, the viability, T/C [4] was 33.2%, the viability, T/C [5] was 20.6% and the viability, T/C [6] was 1.74%. It also gave a viability, T/C [7] of 98.9%, a viability, T/C [8] of 71.8% and a viability, T/C [9] of 36.3%. It also gave a viability, T/C [10] of 31.1%, a viability, T/C [11] of 20.8% and a viability, T/C [12] of 2.34%. For the same compound, the viability, T/C [13] was 100%, the viability, T/C [14] was 69.8% and the viability, T/C [15] was 33.4%. It also gave a viability, T/C [16] of 40.5%, a viability, T/C [17] of 22.4% and a viability, T/C [18] of 2.19%. The viability, T/C [19] was 97.5%, the viability, T/C [20] was 63% and the viability, T/C [21] was 36%. For the same compound, the viability, T/C [22] was 42.2%, the viability, T/C [23] was 29.4% and the viability, T/C [24] was 3.18%. The viability, T/C [25] was 88.3%, the viability, T/C [26] was 72.6% and the viability, T/C [27] was 40.2%. It also gave a viability, T/C [28] of 44.2%, a viability, T/C [29] of 27.9% and a viability, T/C [30] of 2.27%. For the same compound, the viability, T/C [31] was 79.1%, the viability, T/C [32] was 61.1% and the viability, T/C [33] was 44.1%. The viability, T/C [34] was 47.2%, the viability, T/C [35] was 31.1% and the viability, T/C [36] was 3.01%.

COc1ccc([C@@H](O)c2cc(-c3ncnc4cc(N5CCOCC5)ccc34)c(F)cc2Cl)nn1 + Cc1[nH]c2ccc(F)cc2c1-c1nc2c3cccnc3c3ncccc3c2[nH]1 was tested, and the IC50 (second compound 0.0316 µM) was 7420 nM, the IC50 (second compound 0.1 µM) was over 10000 nM and the IC50 (second compound 0.316 µM) was over 10000 nM. The IC50 (second compound 1 µM) was 9540 nM, the IC50 (second compound 3.16 µM) was over 10000 nM and the IC50 (second compound 10 µM) was 7100 nM. It also gave a viability, T/C [1] of 120%, a viability, T/C [2] of 101% and a viability, T/C [3] of 106%. For the same compound, the viability, T/C [4] was 87.6%, the viability, T/C [5] was 59.3% and the viability, T/C [6] was 46.9%. It also gave a viability, T/C [7] of 115%, a viability, T/C [8] of 104% and a viability, T/C [9] of 95.3%. For the same compound, the viability, T/C [10] was 85.4%, the viability, T/C [11] was 75% and the viability, T/C [12] was 55.3%. For the same compound, the viability, T/C [13] was 99.3%, the viability, T/C [14] was 106% and the viability, T/C [15] was 85.4%. It also gave a viability, T/C [16] of 91.5%, a viability, T/C [17] of 65.9% and a viability, T/C [18] of 53.5%. For the same compound, the viability, T/C [19] was 98.2%, the viability, T/C [20] was 97.3% and the viability, T/C [21] was 96.2%. It also gave a viability, T/C [22] of 75.8%, a viability, T/C [23] of 70.6% and a viability, T/C [24] of 48.5%. It also gave a viability, T/C [25] of 94.8%, a viability, T/C [26] of 94.1% and a viability, T/C [27] of 92.3%. It also gave a viability, T/C [28] of 91.2%, a viability, T/C [29] of 66% and a viability, T/C [30] of 50.7%. For the same compound, the viability, T/C [31] was 89.2%, the viability, T/C [32] was 80.2% and the viability, T/C [33] was 93.9%. It also gave a viability, T/C [34] of 72.2%, a viability, T/C [35] of 66.9% and a viability, T/C [36] of 43.4%.
